Results: PubChem BioAssay (NCI)
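Cells were grown in 96-well plates and exposed to each compound for 48 hours at five concentrations; endpoints were interpolated linearly between bracketing concentrations, or set to the highest concentration if not reached. Definition used: TGI = concentration required for complete inhibition of growth.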

Columns and labels:
Test in all cases: inhibition of tumour cell growth, NCI panel, 48 h
SF-268 CNS = test system: SF-268 CNS
SF-539 CNS = test system: SF-539 CNS
MALME-3M melanoma = test system: MALME-3M melanoma
SK-MEL-28 melanoma = test system: SK-MEL-28 melanoma
M14 melanoma = test system: M14 melanoma
U251 CNS = test system: U251 CNS
SW-620 colon = test system: SW-620 colon
LOX IMVI melanoma = test system: LOX IMVI melanoma
MDA-MB-231 breast = test system: MDA-MB-231 breast
NCI/ADR-RES ovarian = test system: NCI/ADR-RES ovarian
OVCAR-8 ovarian = test system: OVCAR-8 ovarian
CCRF-CEM leukemia = test system: CCRF-CEM leukemia
T-47D breast = test system: T-47D breast
KM12 colon = test system: KM12 colon
MDA-MB-435 = test system: MDA-MB-435
HT29 colon = test system: HT29 colon
SNB-19 CNS = test system: SNB-19 CNS
OVCAR-4 ovarian = test system: OVCAR-4 ovarian
SNB-75 CNS = test system: SNB-75 CNS
PC-3 prostate = test system: PC-3 prostate
ACHN renal = test system: ACHN renal
SK-MEL-5 melanoma = test system: SK-MEL-5 melanoma
HS 578T breast = test system: HS 578T breast
HCC-2998 colon = test system: HCC-2998 colon
DU-145 prostate = test system: DU-145 prostate
SF-295 CNS = test system: SF-295 CNS
HCT-15 colon = test system: HCT-15 colon
UACC-257 melanoma = test system: UACC-257 melanoma
RXF 393 renal = test system: RXF 393 renal
A498 renal = test system: A498 renal
MDA-N = test system: MDA-N
HOP-62 NSCLC = test system: HOP-62 NSCLC
NCI-H522 lung = test system: NCI-H522 lung
SN12C renal = test system: SN12C renal
SK-MEL-2 melanoma = test system: SK-MEL-2 melanoma
HOP-92 NSCLC = test system: HOP-92 NSCLC
TK-10 renal = test system: TK-10 renal
786-0 renal = test system: 786-0 renal
A549 NSCLC = test system: A549 NSCLC
MOLT-4 leukemia = test system: MOLT-4 leukemia
SK-OV-3 ovarian = test system: SK-OV-3 ovarian
RPMI-8226 leukemia = test system: RPMI-8226 leukemia
CAKI-1 renal = test system: CAKI-1 renal
EKVX NSCLC = test system: EKVX NSCLC
OVCAR-3 ovarian = test system: OVCAR-3 ovarian
HL-60(TB) leukemia = test system: HL-60(TB) leukemia
COLO 205 colon = test system: COLO 205 colon
UO-31 renal = test system: UO-31 renal
BT-549 breast = test system: BT-549 breast
IGROV1 ovarian = test system: IGROV1 ovarian
NCI-H460 lung = test system: NCI-H460 lung
OVCAR-5 ovarian = test system: OVCAR-5 ovarian
HCT-116 colon = test system: HCT-116 colon
NCI-H23 lung = test system: NCI-H23 lung
SR leukemia = test system: SR leukemia
K-562 leukemia = test system: K-562 leukemia
NCI-H226 lung = test system: NCI-H226 lung
UACC-62 melanoma = test system: UACC-62 melanoma
MCF7 breast = test system: MCF7 breast

`O=[N+]([O-])c1ccc2c(c1)Nc1c3ccccc3nc3cccc-2c13` was tested, and the TGI (SF-268 CNS) was 40.5 µM, the TGI (SF-539 CNS) was 44.3 µM and the TGI (MALME-3M melanoma) was 19.4 µM. The TGI (SK-MEL-28 melanoma) was 24.8 µM, the TGI (M14 melanoma) was 16.9 µM and the TGI (U251 CNS) was 18.6 µM. The TGI (SW-620 colon) was 15.8 µM, the TGI (LOX IMVI melanoma) was 6.67 µM and the TGI (MDA-MB-231 breast) was over 25.4 µM. For the same compound, the TGI (NCI/ADR-RES ovarian) was 17.1 µM, the TGI (OVCAR-8 ovarian) was 40.4 µM and the TGI (CCRF-CEM leukemia) was 6.19 µM. It also gave a TGI (T-47D breast) of 43.2 µM, a TGI (KM12 colon) of over 100 µM and a TGI (MDA-MB-435) of 36 µM. The TGI (HT29 colon) was over 51.6 µM, the TGI (SNB-19 CNS) was 47.6 µM and the TGI (OVCAR-4 ovarian) was 11.4 µM. It also gave a TGI (SNB-75 CNS) of 11.7 µM, a TGI (PC-3 prostate) of 16.9 µM and a TGI (ACHN renal) of over 60.5 µM. The TGI (SK-MEL-5 melanoma) was 5.51 µM, the TGI (HS 578T breast) was over 100 µM and the TGI (HCC-2998 colon) was 0.341 µM. It also gave a TGI (DU-145 prostate) of 9.43 µM, a TGI (SF-295 CNS) of 6.98 µM and a TGI (HCT-15 colon) of 81.2 µM. The TGI (UACC-257 melanoma) was 47.9 µM, the TGI (RXF 393 renal) was 32.9 µM and the TGI (A498 renal) was over 100 µM. For the same compound, the TGI (MDA-N) was 15.2 µM, the TGI (HOP-62 NSCLC) was 7.7 µM and the TGI (NCI-H522 lung) was 33.2 µM. For the same compound, the TGI (SN12C renal) was over 80 µM, the TGI (SK-MEL-2 melanoma) was 39.5 µM and the TGI (HOP-92 NSCLC) was 18.8 µM. For the same compound, the TGI (TK-10 renal) was 17.3 µM, the TGI (786-0 renal) was 7.36 µM and the TGI (A549 NSCLC) was 15.9 µM. For the same compound, the TGI (MOLT-4 leukemia) was 34.6 µM, the TGI (SK-OV-3 ovarian) was 8.41 µM and the TGI (RPMI-8226 leukemia) was over 39 µM. The TGI (CAKI-1 renal) was 18.8 µM, the TGI (EKVX NSCLC) was 48.7 µM and the TGI (OVCAR-3 ovarian) was 3.8 µM. The TGI (HL-60(TB) leukemia) was over 23.1 µM, the TGI (COLO 205 colon) was 19.8 µM and the TGI (UO-31 renal) was 28.9 µM. For the same compound, the TGI (BT-549 breast) was 29.8 µM, the TGI (IGROV1 ovarian) was 15.4 µM and the TGI (NCI-H460 lung) was 12.5 µM. It also gave a TGI (OVCAR-5 ovarian) of 20.5 µM, a TGI (HCT-116 colon) of 28.8 µM and a TGI (NCI-H23 lung) of over 55.1 µM. The TGI (SR leukemia) was 8.91 µM, the TGI (K-562 leukemia) was over 19.7 µM and the TGI (NCI-H226 lung) was over 93.6 µM. The TGI (UACC-62 melanoma) was 18.1 µM.

Work on `COC(=O)[C@]12CSC[C@H]1C[C@H](c1ccccc1OC)N2` yielded a TGI (SF-268 CNS) of over 100 µM, a TGI (SF-539 CNS) of over 100 µM and a TGI (MALME-3M melanoma) of over 100 µM. For the same compound, the TGI (SK-MEL-28 melanoma) was over 100 µM, the TGI (M14 melanoma) was over 100 µM and the TGI (U251 CNS) was over 100 µM. It also gave a TGI (SW-620 colon) of over 100 µM, a TGI (LOX IMVI melanoma) of over 100 µM and a TGI (MDA-MB-231 breast) of over 100 µM. The TGI (NCI/ADR-RES ovarian) was over 100 µM, the TGI (OVCAR-8 ovarian) was over 100 µM and the TGI (CCRF-CEM leukemia) was over 100 µM. It also gave a TGI (T-47D breast) of over 100 µM, a TGI (KM12 colon) of over 100 µM and a TGI (MDA-MB-435) of over 100 µM. It also gave a TGI (SNB-19 CNS) of over 100 µM, a TGI (OVCAR-4 ovarian) of over 100 µM and a TGI (SNB-75 CNS) of over 100 µM. The TGI (PC-3 prostate) was over 100 µM, the TGI (ACHN renal) was over 100 µM and the TGI (SK-MEL-5 melanoma) was over 100 µM. The TGI (HCC-2998 colon) was over 100 µM, the TGI (DU-145 prostate) was over 100 µM and the TGI (SF-295 CNS) was over 100 µM. The TGI (HCT-15 colon) was over 100 µM, the TGI (MCF7 breast) was over 100 µM and the TGI (UACC-257 melanoma) was over 100 µM. For the same compound, the TGI (RXF 393 renal) was over 100 µM, the TGI (A498 renal) was over 100 µM and the TGI (MDA-N) was over 100 µM. For the same compound, the TGI (HOP-62 NSCLC) was over 100 µM, the TGI (NCI-H522 lung) was over 100 µM and the TGI (SN12C renal) was over 100 µM. It also gave a TGI (SK-MEL-2 melanoma) of over 100 µM, a TGI (TK-10 renal) of over 100 µM and a TGI (786-0 renal) of over 100 µM. The TGI (A549 NSCLC) was over 100 µM, the TGI (MOLT-4 leukemia) was over 100 µM and the TGI (SK-OV-3 ovarian) was over 100 µM. For the same compound, the TGI (RPMI-8226 leukemia) was over 100 µM, the TGI (CAKI-1 renal) was over 100 µM and the TGI (EKVX NSCLC) was over 100 µM. For the same compound, the TGI (OVCAR-3 ovarian) was over 100 µM, the TGI (COLO 205 colon) was over 100 µM and the TGI (UO-31 renal) was over 100 µM. For the same compound, the TGI (BT-549 breast) was over 100 µM, the TGI (IGROV1 ovarian) was over 100 µM and the TGI (NCI-H460 lung) was over 100 µM. For the same compound, the TGI (OVCAR-5 ovarian) was over 100 µM, the TGI (HCT-116 colon) was over 100 µM and the TGI (NCI-H23 lung) was over 100 µM. It also gave a TGI (SR leukemia) of over 100 µM, a TGI (K-562 leukemia) of over 100 µM and a TGI (NCI-H226 lung) of over 100 µM. For the same compound, the TGI (UACC-62 melanoma) was over 100 µM.
